Measurements from ChEMBL document CHEMBL4373665, “Discovery of new non-acidic lonazolac analogues with COX-2 selectivity as potent anti-inflammatory agents” (Medchemcomm, 2019).

Key:
[1] = Ulcerogenic activity in rat assessed as average number of ulcers formed at 50 mg/kg, sc qd for 4 days post 18 hrs fasting measured after 4 days; type: toxicity, organism-based; details: in vivo, 96 h
[2] = Nephrotoxicity in rat assessed as effect on proximal tubule at 50 mg/kg by hematoxylin and eosin staining based assay; type: toxicity, organism-based; details: in vivo
[3] = molecular target: T1, Prostaglandin G/H synthase 2 (Homo sapiens, UniProt P35354); test: Inhibition of human recombinant COX2 assessed as decrease in prostaglandin production using arachidonic acid as substrate pretreated for 15 mins followed by substrate addition and measured after 2 mins by enzyme immunoassay
T1 sequence (P35354 whole entry): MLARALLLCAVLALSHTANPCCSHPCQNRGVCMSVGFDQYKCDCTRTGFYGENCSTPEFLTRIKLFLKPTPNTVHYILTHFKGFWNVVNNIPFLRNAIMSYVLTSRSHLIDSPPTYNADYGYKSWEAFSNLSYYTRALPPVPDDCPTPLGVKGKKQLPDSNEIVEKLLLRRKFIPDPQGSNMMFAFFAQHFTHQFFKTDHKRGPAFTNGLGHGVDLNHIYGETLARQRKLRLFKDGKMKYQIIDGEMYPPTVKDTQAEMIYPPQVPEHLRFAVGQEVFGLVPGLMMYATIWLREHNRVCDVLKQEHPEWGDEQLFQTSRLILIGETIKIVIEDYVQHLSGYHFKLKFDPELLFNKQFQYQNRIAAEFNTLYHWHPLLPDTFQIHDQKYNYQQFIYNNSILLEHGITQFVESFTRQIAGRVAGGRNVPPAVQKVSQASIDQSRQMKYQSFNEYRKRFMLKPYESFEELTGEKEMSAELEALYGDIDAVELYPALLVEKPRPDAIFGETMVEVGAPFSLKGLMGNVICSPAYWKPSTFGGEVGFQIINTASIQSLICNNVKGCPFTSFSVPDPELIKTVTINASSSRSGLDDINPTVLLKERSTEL

[4] = test system: Rattus norvegicus; test: Anti-inflammatory activity in albino rat model of carrageenan-induced paw edema assessed as inhibition of carrageenan-induced paw edema at 100 mg/kg, po administered as single dose prior to carrageenan challenge measured after 3 hrs relative to control; type: functional
[5] = Ulcerogenic activity in rat assessed as incidence of gastric ulceration at 50 mg/kg, sc qd for 4 days post 18 hrs fasting measured after 4 days relative to control; type: toxicity, organism-based; details: in vivo, 96 h
[6] = test system: Rattus norvegicus; test: Anti-inflammatory activity in albino rat model of carrageenan-induced paw edema assessed as inhibition of carrageenan-induced paw edema at 100 mg/kg, po administered as single dose prior to carrageenan challenge measured after 12 hrs relative to control; type: functional
[7] = Ulcerogenic activity in rat assessed as average severity of ulcers formed at 50 mg/kg, sc qd for 4 days post 18 hrs fasting measured after 4 days; type: toxicity, organism-based; details: in vivo, 96 h
[8] = Nephrotoxicity in rat assessed as effect on distal tubule at 50 mg/kg by hematoxylin and eosin staining based assay; type: toxicity, organism-based; details: in vivo
[9] = test system: Rattus norvegicus; test: Anti-inflammatory activity in albino rat model of carrageenan-induced paw edema assessed as inhibition of carrageenan-induced paw edema at 100 mg/kg, po administered as single dose prior to carrageenan challenge measured after 1 hr relative to control; type: functional
[10] = test system: Rattus norvegicus; test: Anti-inflammatory activity in albino rat model of carrageenan-induced paw edema assessed as inhibition of carrageenan-induced paw edema at 100 mg/kg, po administered as single dose prior to carrageenan challenge measured after 8 hrs relative to control; type: functional
[11] = Hepatotoxicity in rat assessed as effect on bile ducts at 50 mg/kg by hematoxylin and eosin staining based assay; type: toxicity, organism-based; details: in vivo
[12] = Ulcerogenic activity in rat assessed as ulcer index at 50 mg/kg, sc qd for 4 days post 18 hrs fasting measured after 4 days; type: toxicity, organism-based; details: in vivo, 96 h
[13] = Hepatotoxicity in rat assessed as effect on central veins in liver at 50 mg/kg by hematoxylin and eosin staining based assay; type: toxicity, organism-based; details: in vivo
[14] = species on record: Homo sapiens; test: Selectivity index, ratio of IC50 for human recombinant COX1 to IC50 for human recombinant COX2 using arachidonic acid as substrate
[15] = test system: Rattus norvegicus; test: Anti-inflammatory activity in albino rat model of carrageenan-induced paw edema assessed as inhibition of carrageenan-induced paw edema at 100 mg/kg, po administered as single dose prior to carrageenan challenge measured after 4 hrs relative to control; type: functional
[16] = Ulcerogenic activity in rat assessed as effect on mucosal blood vessel at 50 mg/kg by hematoxylin and eosin staining based assay; type: toxicity, organism-based; details: in vivo
[17] = Ulcerogenic activity in rat assessed as effect on gastric submucosa at 50 mg/kg by hematoxylin and eosin staining based assay; type: toxicity, organism-based; details: in vivo
[18] = Hepatotoxicity in rat assessed as effect on hepatocytes in periportal area at 50 mg/kg by hematoxylin and eosin staining based assay; type: toxicity, organism-based; details: in vivo
[19] = Nephrotoxicity in rat assessed as effect on glomeruli at 50 mg/kg surrounded by Bowmann's capsule by hematoxylin and eosin staining based assay; type: toxicity, organism-based; details: in vivo
[20] = Hepatotoxicity in rat assessed as effect on portal veins at 50 mg/kg by hematoxylin and eosin staining based assay; type: toxicity, organism-based; details: in vivo
[21] = Ulcerogenic activity in rat assessed as effect on parietal cells at 50 mg/kg by hematoxylin and eosin staining based assay; type: toxicity, organism-based; details: in vivo
[22] = molecular target: Prostaglandin G/H synthase 1 (Homo sapiens, UniProt P23219); test: Inhibition of human recombinant COX1 assessed as decrease in prostaglandin production using arachidonic acid as substrate pretreated for 15 mins followed by substrate addition and measured after 2 mins by enzyme immunoassay; type: single protein
[23] = Ulcerogenic activity in rat assessed as effect on gastric mucosa at 50 mg/kg by hematoxylin and eosin staining based assay; type: toxicity, organism-based; details: in vivo

Sequence of Prostaglandin G/H synthase 1 (P23219 whole entry): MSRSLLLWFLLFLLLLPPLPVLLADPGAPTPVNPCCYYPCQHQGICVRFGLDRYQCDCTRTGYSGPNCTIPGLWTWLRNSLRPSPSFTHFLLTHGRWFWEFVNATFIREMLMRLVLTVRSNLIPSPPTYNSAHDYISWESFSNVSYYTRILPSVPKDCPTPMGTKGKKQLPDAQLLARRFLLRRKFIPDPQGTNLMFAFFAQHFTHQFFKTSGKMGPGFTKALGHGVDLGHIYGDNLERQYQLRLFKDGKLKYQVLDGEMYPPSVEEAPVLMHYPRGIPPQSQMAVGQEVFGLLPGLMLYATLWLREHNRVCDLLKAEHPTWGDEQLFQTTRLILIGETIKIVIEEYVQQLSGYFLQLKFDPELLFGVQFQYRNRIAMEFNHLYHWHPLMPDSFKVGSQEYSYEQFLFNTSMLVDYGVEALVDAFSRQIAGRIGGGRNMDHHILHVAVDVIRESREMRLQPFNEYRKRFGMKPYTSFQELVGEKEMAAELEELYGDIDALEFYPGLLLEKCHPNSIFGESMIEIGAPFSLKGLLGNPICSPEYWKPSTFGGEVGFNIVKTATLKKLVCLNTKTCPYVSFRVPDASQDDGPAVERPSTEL

SMILES | Activity [1] | Activity [2] | IC50 [3] [nM] | inhibition in vivo at 100 mg/kg [4] [%] | Activity [5] [%] | inhibition in vivo at 100 mg/kg [6] [%] | Activity [7] | Activity [8] | inhibition in vivo at 100 mg/kg [9] [%] | inhibition in vivo at 100 mg/kg [10] [%] | Activity [11] | UI [12] | Activity [13] | Ratio IC50 [14] | inhibition in vivo at 100 mg/kg [15] [%] | Activity [16] | Activity [17] | Activity [18] | Activity [19] | Activity [20] | also measured
Clc1ccc(-c2cc(-c3cn(-c4ccccc4)nc3-c3ccc(OCc4ccccc4)cc3)on2)cc1 | 1.2 | Toxic | 1250 | 70.9 | 6 | 45 | 1.2 | Toxic | 69.8 | 48.7 | Toxic | 8.4 | Toxic | 2.31 | 42.9 | Toxic | Toxic | Toxic | Toxic | Toxic | Activity [21]: Toxic; IC50 [22]: 2.89 µM; Activity [23]: Toxic
S=c1nc(-c2ccc(Cl)cc2)cc(-c2cn(-c3ccccc3)nc2-c2ccc(OCc3ccccc3)cc2)[nH]1 | 1.2 | Toxic | 1100 | 54.4 | 4 | 15.5 | 1.2 | Toxic | 42.2 | 24.7 | Toxic | 6.4 | Toxic | 6.54 | 41.8 | Toxic | Toxic | Toxic | Toxic | Toxic | Activity [21]: Toxic; IC50 [22]: 7.2 µM; Activity [23]: Toxic
Nc1nc(-c2ccccc2)cc(-c2cn(-c3ccccc3)nc2-c2ccc(OCc3ccccc3)cc2)n1 | 0.6 | Toxic | 2800 | 74.4 | 2 | 33.6 | 0.6 | Toxic | 82 | 40.2 | Toxic | 3.2 | Toxic | 5.89 | 83.9 | Toxic | Toxic | Toxic | Toxic | Toxic | Activity [21]: Toxic; IC50 [22]: 16.5 µM; Activity [23]: Toxic
O=C(/C=C/c1cn(-c2ccccc2)nc1-c1ccc(OCc2ccccc2)cc1)c1ccccc1 | 0.4 | Non-Toxic | 1880 | 58.2 | 2 | 32.5 | 0.4 | Non-Toxic | 81.7 | 23.8 | Non-Toxic | 2.8 | Non-Toxic | 8.22 | 51.2 | Non-Toxic | Non-Toxic | Non-Toxic | Non-Toxic | Non-Toxic | Activity [21]: Non-Toxic; IC50 [22]: 15.5 µM; Activity [23]: Non-Toxic
CC(=O)n1nc(-c2ccccc2)cc1-c1cn(-c2ccccc2)nc1-c1ccc(OCc2ccccc2)cc1 | 0.8 | Toxic | 1930 | 64.6 | 4 | 57.7 | 1.2 | Toxic | 78.3 | 55.2 | Toxic | 6 | Toxic | 6.74 | 59.8 | Toxic | Toxic | Toxic | Toxic | Toxic | Activity [21]: Toxic; IC50 [22]: 13 µM; Activity [23]: Toxic
